According to BigSolDB 2.1:

NC(=O)c1ccccc1
solubility (mole fraction)
Details	283.15 K	288.15 K	293.15 K	298.15 K	303.15 K	308.15 K	313.15 K	318.15 K	323.15 K
in ethanol	0.041	0.0478	0.0567	0.0652	0.0761	0.0859	0.102	0.122	0.142
in ethyl acetate	0.0217	0.024	0.0281	0.0325	0.0381	0.0453	0.0527	0.0618	0.0717
in methanol	0.061	0.0692	0.08	0.088	0.104	0.123	0.138	0.162	0.186
in n-propanol	0.0329	0.0399	0.0471	0.0552	0.0653	0.0754	0.0892	0.105	0.126
